# Assay results as given in patent publication US10952999B2, “Inhibitor of cyclin-dependent kinase CDK9” (GENFLEET THERAPEUTICS (SHANGHAI) INC., priority 2017, dated 2021).
# Columns and labels:
# Assay in all cases: Cancer cell growth, Cell Titer-Glo cell viability assay, 72 hours
# Assay type in all cases: cell-based
# [1] = test system: MDS-RAEB (myelodysplastic syndrome-excess blasts type) cell line SKM-1; details: Homo sapiens; SKM-1, 72 hours
# From the text: (§1) In the examples, we used acute myelocytic leukemia (AML) OCI-AML-3, acute promyelocytic leukemia cell line NB-4, MDS-RAEB (myelodysplastic syndrome-excess blasts type) cell line SKM-1, human leukemia cell Nomo-1, acute myeloid leukemia cell line MOLM14, acute myeloid leukemia cell line MOLM13, acute myeloid leukemia cell line MV4-11, acute myeloid leukemia cell line HL-60, acute myeloid leukemia cell line OCI-AML-2, histiocytic lymphoma U-937, acute B cell leukemia cell line MEC-1, acute B cell leukemia cell line MEC-2, acute megakaryoblastic leukemia CMK, hamster lung cell CHL, hamster ovary cell CHO, human non-small cell lung cancer cell H1975, human non-small cell lung cancer cell H358, human small cell lung cancer cell H209, human lung adenocarcinoma cell H1395, human non-small cell lung cancer cell PC-9, human lung cancer cell H3122, human non-small cell lung cancer cell H2122, human non-small cell lung cancer cell H1915, human lung adenocarcinoma cell H1355, human non-small cell lung cancer cell HCC827, human breast cancer cell MDA-MB-231, human breast cancer cell MDA-MB-468, human breast cancer cell MCF-7, human breast cancer cell T47D, human breast cancer cell SK-Br-3, the above cells were purchased from ATCC.
# (§2) Cell Titer-Glo® (Promega, USA) chemical self-luminescence cell viability assay kit was used to detect the number of viable cells by quantitatively measuring ATP in living cells, according to which to calculate GI50 and IC50.
# [2] = test system: acute B cell leukemia cell line MEC-1; details: Homo sapiens, MEC1; MEC-1, 72 hours
# From the text: as §1, §2
# [3] = test system: acute B cell leukemia cell line MEC-2; details: MEC2; MEC-2, 72 hours
# From the text: as §1, §2
# [4] = test system: acute megakaryoblastic leukemia CMK
# From the text: as §1, §2
# [5] = test system: acute myelocytic leukemia (AML) OCI-AML-3; details: Homo sapiens, OCI-AML-3; OCI-AML3, 72 hours
# From the text: as §1, §2
# [6] = test system: acute myeloid leukemia cell line HL-60; details: Homo sapiens; HL-60, 72 hours
# From the text: as §1, §2
# [7] = test system: acute myeloid leukemia cell line MOLM13; details: Homo sapiens; MOLM-13, 72 hours
# From the text: as §1, §2
# [8] = test system: acute myeloid leukemia cell line MOLM14; details: Homo sapiens; MOLM-14, 72 hours
# From the text: as §1, §2
# [9] = test system: acute myeloid leukemia cell line MV4-11; details: Homo sapiens; MV4-11, 72 hours
# From the text: as §1, §2
# [10] = test system: acute myeloid leukemia cell line OCI-AML-2; details: Homo sapiens; OCI-AML2, 72 hours
# From the text: as §1, §2
# [11] = test system: acute promyelocytic leukemia cell line NB-4; details: NB4, 72 hours
# From the text: as §1, §2
# hamster lung cell CHL = details: CHL, 72 hours
# From the text: as §1, §2
# hamster ovary cell CHO = details: CHO, 72 hours
# From the text: as §1, §2
# [12] = test system: histiocytic lymphoma U-937; details: Homo sapiens; U-937, 72 hours
# From the text: as §1, §2
# [13] = test system: human leukemia cell Nomo-1; details: Homo sapiens; Nomo-1, 72 hours
# From the text: as §1, §2
Structure (SMILES),GI50 [1],GI50 [2],GI50 [3],GI50 [4],GI50 [5],GI50 [6],GI50 [7],GI50 [8],GI50 [9],GI50 [10],GI50 [11],GI50 (hamster lung cell CHL),GI50 [12],GI50 [13],GI50 (hamster ovary cell CHO)
"N[C@H]1CC[C@H](Nc2cc(-c3csc(NCC4CCOCC4)n3)c(Cl)cn2)CC1 [Compound 2, (1r,4r)-N^1-(5-chloro-4-(2-(((tetrahydro-2H-pyran-4-yl)methyl)amino)thiazol-4-yl)pyridin-2-yl)cyclohexane-1,4-diamine]",85 nM,270 nM,140 nM,370 nM,140 nM,550 nM,150 nM,140 nM,140 nM,9100 nM,56 nM,3500 nM,120 nM,590 nM,2800 nM
"COC[C@H](C)N[C@H]1CC[C@H](Nc2cc(-c3csc(NCC4CCOCC4)n3)c(Cl)cn2)CC1 [Compound 5, (1S,4r)-N^1-(5-chloro-4-(2-(((tetrahydro-2H-pyran-4-yl)methyl)amino)thiazol-4-yl)pyridin-2-yl)-N^4-((S)-1-methoxypropan-2-yl)cyclohexane-1,4-diamine]",350 nM,1300 nM,770 nM,1500 nM,820 nM,390 nM,640 nM,490 nM,440 nM,470 nM,460 nM,3600 nM,430 nM,1000 nM,1200 nM
"COC[C@@H](C)N[C@H]1CC[C@H](Nc2cc(-c3csc(NCC4CCOCC4)n3)c(Cl)cn2)CC1 [Compound 6, (1R,4r)-N^1-(5-chloro-4-(2-(((tetrahydro-2H-pyran-4-yl)methyl)amino)thiazol-4-yl)pyridin-2-yl)-N^4-((R)-1-methoxypropan-2-yl)cyclohexane-1,4-diamine]",97 nM,310 nM,130 nM,350 nM,150 nM,65 nM,130 nM,110 nM,140 nM,120 nM,110 nM,1100 nM,110 nM,290 nM,400 nM

# Continued, in another order:
GI50 [1],GI50 [2],GI50 [3],GI50 [4],GI50 [5],GI50 [6],GI50 [7],GI50 [8],GI50 [9],GI50 [10],GI50 [11],GI50 (hamster lung cell CHL),GI50 [12],GI50 [13],Structure (SMILES),GI50 (hamster ovary cell CHO)
150 nM,3600 nM,830 nM,150 nM,720 nM,310 nM,200 nM,530 nM,550 nM,2900 nM,220 nM,930 nM,1400 nM,1000 nM,"O=C(Nc1cc(-c2csc(NCC3CCOCC3)n2)c(Cl)cn1)c1ccc(F)cc1 [Compound 8, N-(5-chloro-4-(2-(((tetrahydro-2H-pyran-4-yl)methyl)amino)thiazol-4-yl)pyridin-2-yl)-4-fluorobenzamide]",1600 nM
750 nM,1400 nM,1100 nM,1800 nM,1100 nM,420 nM,1000 nM,680 nM,530 nM,650 nM,700 nM,1900 nM,850 nM,1300 nM,"CNc1nc(-c2cc(N[C@H]3CC[C@H](NCCOC)CC3)ncc2Cl)cs1 [Compound 9, (1r,4r)-N^1-(5-chloro-4-(2-(methylamino)thiazol-4-yl)pyridin-2-yl)-N^4-(2-methoxyethyl)cyclohexane-1,4-diamine]",1200 nM
